In patent publication US10016382B2, “Method for decreasing skeletal muscle damage and/or oxidative stress in mammals” (LONZA INC., priority 2014, dated 2018):
“And” between values parts separate entries of the source, which are not always exact repeats. Identical values can stand only once.

Experiments:
Type in all cases: in vivo, dog
[1] = test system: total antioxidant capacity (TAC); assay: Serum total antioxidant capacity (TAC), Example 2 part one; conditions: for TAC: serum
Method: Twenty-four hours after test dogs ran the last 15 mile endurance run, serum samples were taken to evaluate biomarkers for muscle damage and antioxidant status. Blood samples were taken 1) just prior to the beginning of the study; 2) 1 day prior to running the final 15 mile run on the 14th week; 3) 1 hour immediately following the 15 mile run; and 4) 24 hours following the final 15 mile run. After a blood sample was drawn, it was allowed to clot for 30 minutes at 25° C. before being centrifuged for 15 minutes at 2000 g at 4° C. Serum was aliquoted into 0.65 mL microcentrifuge tubes and stored at −80° C. until being assayed at the end of the study for creatine kinase, canine myoglobin, thiobarbituric acid reactive substances (TBARS), and total antioxidant capacity (TAC) using the commercially available kits described in Example 1.

skeletal protein = assay: Fractional synthesis rate (FSR) of skeletal protein, 15N Phe infusion, Example 2 part two
Method: At the end of the 60 day training program, 24 of the dogs (12 resting and 12 running) were infused with a bolus dose of 15N Phe. […] Forty-five minutes after infusion, a 5 mm Bergstrom muscle biopsy needle was used to take a biopsy of the biceps femoris muscle. The muscle samples were quickly frozen in liquid nitrogen and placed in a -80° C. freezer for later analysis]. Twenty-four hours after the resting dogs were infused with 15N Phe, the remaining 12 dogs (6 non-carnitine; 3 male and 3 female and 6 L-carnitine; 3 male and 3 female) were run for a 15 mile endurance run. Following a 30 minute period of measured physiological recovery (heart rate and body temperature), test dogs that completed the 15 mile run were infused with a 2% 15N Phe solution as described above; muscle biopsies were taken 45 minutes after infusion. To process the samples, the acid-soluble fraction containing free amino acids was removed by addition of 2% (w/v) perchloric acid. After homogenization, samples were centrifuged at 3,000×g, and the supernatant, containing free amino acids, was removed. The protein precipitate was washed three times with 2% perchloric acid before being hydrolyzed in 6N HCL. The supernatant and precipitate, respectively, were then run through an ion-exchange column packed with Dowex 50WX8-200. Phenylalanine and 3-methylhistidine (3-MH) were eluted with 2 mL of 4N NH4OH and 1 mL of nanopure H2O into a new vial and then dried under vacuum. The tert-butyldimethylsilyl (tBDMS) derivative was formed by adding 800 μL of C2CH3CN-MTBSTFA (1:1) and incubating at 110° C. for 60 minutes. Analysis of the protein precipitate of muscle samples and free amino acids were carried out on an Agilent 7890A GC system attached to an Agilent 6975C mass spectrometer. Helium was used as the carrier gas at 1 mL/min. A 1 μL volume was injected into the GC/MS in splitless mode. Oven temperature began at 150° C. and increased by 50° C./min until reaching 200° C., after which the temperature was increased by 20° C./min until reaching 270° C. The temperature was held at 270° C. for 5.5 minutes. The mass spectrometer was operated under EI and SIM modes. The 394 and 395 m/z fragments, which represented the M and M+1 fragments of phenylalanine, were monitored.

Creatine kinase (CK) = assay: Serum creatine kinase (muscle damage biomarker), Example 1; conditions: for Creatine Kinase, serum, Mean / Change in Creatine Kinase Activity, post-run minus pre-run: Ex.1, 250 mg/d; for Change in Creatine Kinase Activity, post-run minus pre-run: following 15 mile long run at 13 wk, mean ± SEM
Method: Blood Analysis: Serum samples were taken at three different times from each dog during the 90 day period. The blood samples were collected as follows: 1.) just prior to scanning each dog for body composition at the beginning of the study, 2.) prior to the long run on the 13th week, and 3.) following the long run on the 13th week. The serum samples were analyzed for Phosphocreatine Kinase and Canine Myoglobin to determine the amount of muscle protein leakage that occurred following the long run and TBARS and Total Antioxidant Capacity (TAC) were determined to evaluate the antioxidant status of each of the test dogs during the exercise program. The final blood sample was taken 24 hr after the long run to obtain maximum protein leakage based on previous similar types of exercise research with human athletes. Biomarkers and Assay Methods: Blood was drawn from each dog using a serum separator tube at three different times during the 90 day period: 1.) just prior to scanning each dog for body composition at the beginning of the study, 2.) prior to the long run on the 13th week, and 3.) following the long run on the 13th week. The final blood sample was taken 24 hr after the long run to obtain maximum protein leakage based on previous similar types of exercise research with human athletes. Each time after the blood was drawn it was allowed to clot before being centrifuged for 15 min at 2000 g at 4° C. Serum was aliquoted into 1.5 mL microcentrifuge tubes and stored at −80° C. until assays were ran following the end of the study. Creatine kinase (CK) and canine myoglobin were measured to determine the amount of muscle protein leakage that occurred following the long run. Thiobarbituric acid reactive substances (TBARS) and total antioxidant capacity (TAC) were measured to evaluate the antioxidant status of each of the test dogs during the exercise program. Serum samples were analyzed for total antioxidant capacity (TAC) and thiobarbituric acid reactive substances (TBARS) using commercially available colorimetric kits supplied by Cayman Chemical Company (Ann Arbor, Mich.) per manufacturer instructions. Serum canine myoglobin levels were determined using a commercially available ELISA supplied by Innovate Research (Novi, Mich.) per manufacturer instructions. Creatine kinase activity was determined colorimetrically using a commercially available kit supplied by BioVision (San Francisco, Calif.).

C[N+](C)(C)C[C@H](O)CC(=O)[O-] [L-carnitine]
TAC levels, serum ([1]; Ex.2 part one, 250 mg/d, post-run 24-hr): 0.16 mM Trolox equiv
TAC ([1]; FEMALES, Baseline): 0.15 ± 0.01 mM Trolox Equiv
TAC ([1]; FEMALES, Post-Run 1 Hr): 0.15 ± 0.01 mM Trolox Equiv
TAC ([1]; FEMALES, Post-Run 24 Hr): 0.16 ± 0.01 mM Trolox Equiv
TAC ([1]; FEMALES, Pre-Run): 0.13 ± 0.01 mM Trolox Equiv
TAC ([1]; MALES, Baseline): 0.18 ± 0.01 mM Trolox Equiv
TAC ([1]; MALES, Post-Run 1 Hr): 0.16 ± 0.01 mM Trolox Equiv
TAC ([1]; MALES, Post-Run 24 Hr): 0.16 ± 0.01 mM Trolox Equiv
TAC ([1]; MALES, Pre-Run): 0.15 ± 0.01 mM Trolox Equiv
TAC ([1]; Whole Groups, Baseline): 0.17 ± 0.01 mM Trolox Equiv
TAC ([1]; Whole Groups, Post-Run 1 Hr, Post-Run 1 Hr): 0.15 ± 0.01 mM Trolox Equiv
TAC ([1]; Whole Groups, Post-Run 24 Hr, Post-Run 24 Hr): 0.16 ± 0.01 mM Trolox Equiv
TAC ([1]; Whole Groups, Pre-Run): 0.14 ± 0.01 mM Trolox Equiv
% FSR of skeletal protein vs control (skeletal protein; Ex.2 part two, 250 mg/d, male or female dogs): did not increase
FSR (skeletal protein; Female, no run): 5.04%
FSR (skeletal protein; Female, run): 2.54%
FSR (skeletal protein; Male, no run): 3.61%
FSR (skeletal protein; Male, run): 4.63%
Creatine Kinase Least Sq Mean (Creatine kinase (CK); Baseline): 24.88 mU/mL
Creatine Kinase Least Sq Mean (Creatine kinase (CK); Baseline, F): 35.85 mU/mL
Creatine Kinase Least Sq Mean (Creatine kinase (CK); Baseline, M): 13.91 mU/mL
Creatine Kinase, serum, Mean (Creatine kinase (CK); Baseline, both sexes): 22.9 mU · mL
Creatine Kinase, serum, Mean (Creatine kinase (CK); Baseline, females): 35.8 mU · mL
Creatine Kinase, serum, Mean (Creatine kinase (CK); Baseline, males): 13.9 mU · mL
Creatine Kinase, serum, Mean (Creatine kinase (CK); Post-run (24 hr after 15 mile run), both sexes): 16.1 mU · mL
Creatine Kinase, serum, Mean (Creatine kinase (CK); Post-run, females): 19.9 mU · mL
Creatine Kinase, serum, Mean (Creatine kinase (CK); Post-run, males): 12.2 mU · mL
Creatine Kinase, serum, Mean (Creatine kinase (CK); Pre-run (24 hr before 15 mile run), both sexes): 7.0 mU · mL
Creatine Kinase, serum, Mean (Creatine kinase (CK); Pre-run, females): 6.9 mU · mL
Creatine Kinase, serum, Mean (Creatine kinase (CK); Pre-run, males): 7.0 mU · mL
Change in Creatine Kinase Activity, post-run minus pre-run (Creatine kinase (CK); both sexes, text: units): 9.3 and 9.3 ± 1.86 n = 18
Change in Creatine Kinase Activity, post-run minus pre-run (Creatine kinase (CK); females): 13.06 ± 2.06 n = 9
Change in Creatine Kinase Activity, post-run minus pre-run (Creatine kinase (CK); males): 5.54 and 5.54 ± 2.63 n = 9
Creatine Kinase Least Sq Mean (Creatine kinase (CK); Post-run): 16.08 mU/mL
Creatine Kinase Least Sq Mean (Creatine kinase (CK); Post-run, F): 19.94 mU/mL
Creatine Kinase Least Sq Mean (Creatine kinase (CK); Post-run, M): 12.21 mU/mL
Creatine Kinase Least Sq Mean (Creatine kinase (CK); Pre-run): 6.96 mU/mL
Creatine Kinase Least Sq Mean (Creatine kinase (CK); Pre-run, F): 6.888 mU/mL
Creatine Kinase Least Sq Mean (Creatine kinase (CK); Pre-run, M): 7.032 mU/mL
Creatine Kinase Least Sq Mean (Creatine kinase (CK); Treatment * Sex, F): 35.85 mU/mL
Creatine Kinase Least Sq Mean (Creatine kinase (CK); Treatment * Sex, M): 13.91 mU/mL
Creatine Kinase Least Sq Mean (Creatine kinase (CK); Treatment level, all dogs): 24.88 mU/mL
Creatine Kinase, mixed model Estimate, term Time[Post-run-Pre-run] * Treatment[L-carnitine] (Creatine kinase (CK); serum, model term): −2.544 mU/mL
Creatine Kinase, mixed model Estimate, term Time[Post-run-Pre-run] * Treatment[L-carnitine] * Sex[F] (Creatine kinase (CK); serum, model term): 1.335 mU/mL
Creatine Kinase, mixed model Estimate, term Time[Pre-run-Baseline] * Treatment[L-carnitine] (Creatine kinase (CK); serum, model term): −3.029 mU/mL
Creatine Kinase, mixed model Estimate, term Time[Pre-run-Baseline] * Treatment[L-carnitine] * Sex[F] (Creatine kinase (CK); serum, model term): −5.661 mU/mL
Creatine Kinase, mixed model Estimate, term Treatment[L-carnitine] (Creatine kinase (CK); serum, model term): 3.121 mU/mL
Creatine Kinase, mixed model Estimate, term Treatment[L-carnitine] * Sex[F] (Creatine kinase (CK); serum, model term): 5.935 mU/mL
